Test results reported in US20160000071A1, “PHOTODEGRADABLE, BIOCOMPATIBLE AND EFFICIENT NANO-ENCAPSULATED FORMULATION” (priority 2014, published 2016).
Marks after values point to notes of the source that are not given here.

How the values were obtained:
[1] = system: newly-ecdysed fifth instar larvae of G. pyloalis; assay: Leaf dip bioassay; assay type: in vivo, Glyphodes pyloalis Walker
Protocol: The insects used in the present application is Glyphodes pyloalis Walker (Lepidoptera: Pyralidae) which was collected from infested mulberry orchards in the vicinity of Rasht, Iran. Mass rearing of insects was carried out in the laboratory under controlled conditions at 25±1° C., 70±5% RH and 16:8 L:D. Newly-ecdysed fifth instar larvae of G. pyloalis were used for the bioassay experiments. The Glyphodes pyloalis Walker hereinafter is referred to as G. pyloalis.
The toxicity of the encapsulated imidacloprid diluted in water for the newly-ecdysed fifth instar larvae of G. pyloalis was evaluated using leaf dip bioassay. The technical imidacloprid was dissolved in acetone and diluted to generate 6 serial dilutions with distilled water. Mulberry leaf discs with diameters of 3.5 cm were prepared, so that each petiole was placed in a vial containing water for providing moisture to the leaf discs for several days. These discs were then immersed in the dilutions for 45 seconds. Mortality was assessed after the treated larvae were maintained at 25±1° C., 70±10 R.H. for 24, 48, 72, 96 and 120 hours.

[2] = Photocatalytic degradation of indoxacarb under UV light; assay type: physicochemical
[3] = Photo degradation of indoxacarb in the batch reactor under natural light

COC(=O)N(C(=O)N1CO[C@@]2(C(=O)OC)Cc3cc(Cl)ccc3C2=N1)c1ccc(OC(F)(F)F)cc1 [Indoxacarb, lndoxacarb]
% mortality ([1]; 0.25 ppm, 24 h after treatment): 21 ± 2.91^g % | % mortality ([1]; 0.25 ppm, 72 h after treatment): 56.4 ± 8.84^bcdef % | % mortality ([1]; 0.25 ppm, 96 h after treatment): 61 ± 8.73^bcdef % | % mortality ([1]; 0.25 ppm, 120 h after treatment): 62 ± 7.62^bcdef % | % mortality ([1]; 0.45 ppm, 24 h after treatment): 34 ± 10.29^efg % | % mortality ([1]; 0.45 ppm, 48 h after treatment): 47.9 ± 10^cdefg % | % mortality ([1]; 0.45 ppm, 72 h after treatment): 59 ± 19.97^bcdef % | % mortality ([1]; 0.45 ppm, 96 h after treatment): 63 ± 12.32^bcdef % | % mortality ([1]; 0.45 ppm, 120 h after treatment): 64 ± 12.67^bcdef % | % mortality ([1]; 0.82 ppm, 24 h after treatment): 34.32 ± 7.45^efg % | % mortality ([1]; 0.82 ppm, 48 h after treatment): 51.5 ± 9.25^cdefg % | % mortality ([1]; 0.82 ppm, 72 h after treatment): 63.58 ± 7.84^bcdef % | % mortality ([1]; 0.82 ppm, 96 h after treatment): 76 ± 2.73^abcd % | % mortality ([1]; 0.82 ppm, 120 h after treatment): 77 ± 2.23^abcd % | % mortality ([1]; 1.5 ppm, 24 h after treatment): 44.16 ± 8.22^defg % | % mortality ([1]; 1.5 ppm, 48 h after treatment): 62 ± 2.23^bcdef % | % mortality ([1]; 1.5 ppm, 72 h after treatment): 74.4 ± 2.58^abcd % | % mortality ([1]; 1.5 ppm, 96 h after treatment): 83 ± 2.23^abc % | % mortality ([1]; 1.5 ppm, 120 h after treatment): 83.6 ± 2.07^abc % | % mortality ([1]; 2.8 ppm, 24 h after treatment): 51.32 ± 8.9^cdefg % | % mortality ([1]; 2.8 ppm, 48 h after treatment): 68.82 ± 5.05^abcde % | % mortality ([1]; 2.8 ppm, 72 h after treatment): 76.66 ± 4.27^abcd % | % mortality ([1]; 2.8 ppm, 96 h after treatment): 88.32 ± 6.55^ab % | % mortality ([1]; 2.8 ppm, 120 h after treatment): 88.4 ± 6.57^ab % | % mortality ([1]; 4 ppm, 24 h after treatment): 55 ± 3.87^bcdefg % | % mortality ([1]; 4 ppm, 48 h after treatment): 71.98 ± 2.92^abcd % | % mortality ([1]; 4 ppm, 72 h after treatment): 88.32 ± 7.57^ab % | % mortality ([1]; 4 ppm, 96 h after treatment): 100% | % mortality ([1]; 4 ppm, 120 h after treatment): 100 ± 0^a % | % degradation of indoxacarb ([2]; 10 ppm, 1 h): 2.3% | % degradation of indoxacarb ([2]; 10 ppm, 3 h): 7.44% | % degradation of indoxacarb ([2]; 10 ppm, 6 h): 10.26% | % degradation of indoxacarb ([2]; 10 ppm, 18 h): 13.07% | % degradation of indoxacarb ([2]; 20 ppm, 1 h): 6.24% | % degradation of indoxacarb ([2]; 20 ppm, 3 h): 12.49% | % degradation of indoxacarb ([2]; 20 ppm, 6 h): 18.9% | % degradation of indoxacarb ([2]; 20 ppm, 18 h): 22.03% | % degradation of indoxacarb ([2]; 30 ppm, 1 h): 9.32% | % degradation of indoxacarb ([2]; 30 ppm, 3 h): 13.07% | % degradation of indoxacarb ([2]; 30 ppm, 6 h): 23.34% | % degradation of indoxacarb ([2]; 30 ppm, 18 h): 25.21% | % degradation of indoxacarb ([2]; 40 ppm, 1 h): 11.47% | % degradation of indoxacarb ([2]; 40 ppm, 3 h): 15.04% | % degradation of indoxacarb ([2]; 40 ppm, 6 h): 24.26% | % degradation of indoxacarb ([2]; 40 ppm, 18 h): 25.39% | % degradation of indoxacarb ([2]; 50 ppm, 1 h): 9.23% | % degradation of indoxacarb ([2]; 50 ppm, 3 h): 13.34% | % degradation of indoxacarb ([2]; 50 ppm, 6 h): 21.02% | % degradation of indoxacarb ([2]; 50 ppm, 18 h): 21.02% | maximum amount of indoxacarb removed / degraded ([2]; after approximately 18 h, over all concentrations (10-50 ppm)): about 25% | % photo degradation of indoxacarb ([3]; 10 ppm, 2 d): 16.33% | % photo degradation of indoxacarb ([3]; 10 ppm, 4 d): 19.02% | % photo degradation of indoxacarb ([3]; 10 ppm, 6 d): 21.21% | % photo degradation of indoxacarb ([3]; 10 ppm, 8 d): 23.4% | % photo degradation of indoxacarb ([3]; 10 ppm, 10 d): 30.47% | % photo degradation of indoxacarb ([3]; 20 ppm, 2 d): 22.26% | % photo degradation of indoxacarb ([3]; 20 ppm, 4 d): 23.47% | % photo degradation of indoxacarb ([3]; 20 ppm, 6 d): 25.17% | % photo degradation of indoxacarb ([3]; 20 ppm, 8 d): 29.28% | % photo degradation of indoxacarb ([3]; 20 ppm, 10 d): 33.4% | % photo degradation of indoxacarb ([3]; 30 ppm, 2 d): 26.23% | % photo degradation of indoxacarb ([3]; 30 ppm, 4 d): 29.2% | % photo degradation of indoxacarb ([3]; 30 ppm, 6 d): 31.18% | % photo degradation of indoxacarb ([3]; 30 ppm, 8 d): 33.16% | % photo degradation of indoxacarb ([3]; 30 ppm, 10 d): 36.13% | % photo degradation of indoxacarb ([3]; 40 ppm, 2 d): 22.26% | % photo degradation of indoxacarb ([3]; 40 ppm, 4 d): 29.28% | % photo degradation of indoxacarb ([3]; 40 ppm, 6 d): 31.34% | % photo degradation of indoxacarb ([3]; 40 ppm, 8 d): 36.3% | % photo degradation of indoxacarb ([3]; 40 ppm, 10 d): 39.21% | % photo degradation of indoxacarb ([3]; 50 ppm, 2 d): 21.23% | % photo degradation of indoxacarb ([3]; 50 ppm, 4 d): 26.35% | % photo degradation of indoxacarb ([3]; 50 ppm, 6 d): 30.18% | % photo degradation of indoxacarb ([3]; 50 ppm, 8 d): 32.23% | % photo degradation of indoxacarb ([3]; 50 ppm, 10 d): 37.38%
